Experimental findings from patent US5656660A, “Compositions and methods for treating mast-cell mediated conditions” (Arris Pharmaceutical Corporation, priority 1995, dated 1997) are described below.

The term pKi denotes the negative decadic logarithm of the Ki, by convention in mol/L. The low end stands for a high Ki, the high end for a low Ki.

pKi: −log10 of the molar value.

Experiment [1] deals with tryptase. Kind of experiment: In vitro tryptase inhibition assay. The format is biochemical, human. Conditions: tosyl-Gly-Pro-Lys-p-nitroanilide 0.5 mM; 1 h preincubation at room temperature; pH 8.2. On the procedure:
The compounds to be assayed (approximately 1 mg) were dissolved in 200 μL dimethylsulfoxide (DMSO) and diluted 1:10 into buffer containing 50 millimolar (mM) Tris-HCl (pH 8.2), 100 mM sodium chloride, and 0.05% polyoxyethylenesorbitan monolaurate (Tween-20°, available from Sigma, St. Louis, Mo.). Seven additional threefold dilutions were made from the initial dilution into the same buffer supplemented with 10% DMSO. Aliquots (50 microliters, μL) from each of the eight dilutions in the series were transferred to individual wells in a 96-well U-bottom microtiter plate. […] The tryptase solution was prepared by placing 60 μg/mL of tryptase into solution with 10 mM MES (2-[N-Morpholino]ethane sulfonic acid) containing 2 mM CaCl2, 20% glycerol and 50 μg/mL heparin. The enzyme reaction was initiated with the addition of the synthetic tripeptide substrate, tosyl-Gly-Pro-Lys-p-nitroanilide (available from Sigma, 25 μL; 0.5 mM final concentration). […] Initial velocity measurements calculated from the progress curves by a kinetic analysis program (BatchKi; Petr Kuzmic, University of Wisconsin, Madison, Wis.) were used to determine apparent inhibition constants for each inhibitor.

The test system of experiment [2] is antigen-challenged sheep. Briefly: Allergic sheep model of asthma, aerosol: Specific Lung Resistance (SRL) after antigen challenge. Conditions: aerosol 0.5 h before, 4 h after and 24 h after challenge, n=6; for early response to antigen challenge (SRL): peak immediately post-challenge; for late response to antigen challenge (SRL): peak within 6-8 h. The format is in vivo. As for the experimental part: The initial asthmatic response can be evaluated in guinea pigs, and dogs, and particularly, with a basenji-greyhound cross strain which develops nonspecific airway hyperresponsiveness to numerous nonallergenic substances, such as methacholine and citric acid. […] In dual responding animals, the initial asthmatic response (IAR) is followed by a late asthmatic response (LAR) at 6-8 hours post-exposure.
The allergic sheep model (see below) was used to evaluate the potential antiasthmatic effects of the compounds of the present invention.
(§1) The allergic sheep model of asthma was employed for the in vivo evaluation of the compounds of the invention as antiasthmatics. These methods have been published previously (see Abraham et al. (1983) Am. Rev. Respir. Dis. 128:839-844; Allegra et al. (1983) J. Appl. Physiol. 55:726-730; Russi et al. (1985) J. Appl. Physiol. 59:1416-1422; Soler et al. ((1989) J. Appl. Physiol. 67:406-413. Each sheep serves as its own control. Body weights for these animals ranged from 20-50 kilograms.
(§2) In these studies, […] of Compound 2 of the invention was dissolved in buffered saline and the total solution delivered as an aerosol 0.5 hours before, 4 hours after, and 24 hours after antigen challenge (total dose=27; n=6). […] The peak early response was taken as the average of the maximum values occurring immediately post-challenge. Peak late responses were calculated by averaging the maximum response values obtained for each animal within the 6-8 hour time period. This approach is conservative and eliminates the possible reduction in the late response due simply to averaging.

For experiment [3], the system named is antigen-challenged sheep. Kind of experiment: Allergic sheep model of asthma: airway hyperresponsiveness (PC400, carbachol). The format is in vivo. The following applies: aerosol; for PC400, concentration of carbachol that causes a 400% increase in SRL / onset of hyperresponsiveness: 24 h after antigen challenge.
Text: as §1, §2
Twenty-four hours after antigen challenge in both the control and drug trial, the sheep developed airway hyperresponsiveness. Airway hyperresponsiveness is expressed as PC400, the concentration of carbachol that causes a 400% increase in SRL; therefore, a decrease in PC400 indicates hyperresponsiveness. […] The number of breath units fell to 10±4 for those animals in the control group.

The test system of experiment [4] is antigen-challenged sheep. Kind of experiment: Allergic sheep model of asthma, oral (intergastric tube): Specific Lung Resistance (SRL). The format is in vivo.
Text: as §1
Three doses of Compound 2 (40 mg in 60 mL water) were administered to sheep through an intergastric tube 1 hr before challenge, 4 hours post-challenge, and 24 hours post-challenge.

In the case of `N=C(N)Nc1ccc(CNC(=O)CNC(=O)OCc2ccc(COC(=O)NCC(=O)NCc3ccc(NC(=N)N)cc3)cc2)cc1` [Example 2, N,N'-(4-Guanidylbenzylaminecarbonylmethylene)-1,4-benzenedimethanol dicarbamate], the pKi in experiment [1] is 7.70. In experiment [2], the “early response to antigen challenge (SRL)” value is listed as “statistically significant reduction in the early response” and the “late response to antigen challenge (SRL)” value is recorded as “attenuated the late response”. In experiment [3], the “PC400, concentration of carbachol that causes a 400% increase in SRL” value turned out to be 24±6 breath units; the onset of hyperresponsiveness entry is “block the onset of hyperresponsiveness”; the “improvement in airway function in antigen challenged sheep” value was “statistically significant improvement in airway function”. In experiment [4] (40 mg in 60 mL water by intergastric tube 1 h before, 4 h and 24 h post-challenge, untreated about 350), the “early phase SRL” value was “about 270”. Besides, the “late phase SRL” value in experiment [4] (40 mg in 60 mL water by intergastric tube 1 h before, 4 h and 24 h post-challenge, untreated over 150) was “about 70”. For the same molecule, the “anti-asthmatic properties when delivered orally” value in experiment [4] (40 mg in 60 mL water, intergastric tube, three doses) is on record as “significant anti-asthmatic properties”.
Turning to `NCc1ccc(CNC(=O)CCC(=O)NCc2ccc(CNC(=O)CCC(=O)NCc3ccc(CN)cc3)cc2)cc1` [Example 8, N,N'-bis(N-(4-aminomethylbenzyl)-succinamido)-p-xylylenediamide], in experiment [1], the pKi is 8.46. For the same molecule, in experiment [2], the “early response to antigen challenge (SRL)” value is “statistically significant early and late increases in SRL”; the “late response to antigen challenge (SRL)” value is “statistically significant early and late increases in SRL”. In addition, in experiment [3], the “PC400, concentration of carbachol that causes a 400% increase in SRL” value stood at 15±10 breath units; the onset of hyperresponsiveness entry is “block the onset of hyperresponsiveness”; the “improvement in airway function in antigen challenged sheep” value is reported as “statistically significant improvement in airway function”.
In the case of `CN(Cc1ccc(CN(C)C(=O)CCC(=O)NCc2ccc(CN)cc2)cc1)C(=O)CCC(=O)NCc1ccc(CN)cc1` [Example 23], the pKi in experiment [1] is 8.30.
The same measure, in the same setting: under `N=C(N)Nc1ccc(CNC(=O)CCNC(=O)OCc2ccc(COC(=O)NCCC(=O)NCc3ccc(NC(=N)N)cc3)cc2)cc1` [Example 3] stands 8.05; under `NCc1ccc(CNC(=O)CCCC(=O)NCc2ccc(CNC(=O)CCCC(=O)NCc3ccc(CN)cc3)cc2)cc1` [Example 10], 8.06.
Same read-out and setting: under `NCC1CCC(CNC(=O)CCC(=O)NCc2ccc(CNC(=O)CCC(=O)NCC3CCC(CN)CC3)cc2)CC1` (stereo not shown) [Example 26, N,N'-Bis(N-(4-aminomethylcyclohexylmethyl)-succinamido)-p-xylylene diamide] stands 6.91; under `NCc1ccc(C(=O)NCCCNC(=O)OCc2ccc(COC(=O)NCCCNC(=O)c3ccc(CN)cc3)cc2)cc1` [Example 19, N,N'-Bis(4-aminomethylbenzamidopropylene)-1,4-benzenedimethanol dicarbamate], 8.30.
Still for that read-out and setting: under `CN(Cc1ccc(CN(C)C(=O)c2ccc(CNC(=O)NC[C@H]3CC[C@H](CN)CC3)cc2)cc1)C(=O)c1ccc(CNC(=O)NC[C@H]2CC[C@H](CN)CC2)cc1` [Example 53] stands 5.92; under `N=C(N)Nc1ccc(CNC2=CCCC(=O)N2C(=O)OCc2ccc(COC(=O)N3C(=O)CCC=C3NCc3ccc(NC(=N)N)cc3)cc2)cc1` [Example 40, Bis((R,S)-2-(4-guanidinobenzylamino)-2,3-dehydro-6-piperidone)-1,4-benzenedimethanol dicarbamate], 6.33.
